Patent US12116574B2, “Anti-inflammatory treatment via inhibition of endothelial cell kinesin light chain 1, variant 1 (KLC1C)” (Northwestern University, priority 2016, dated 2024)
Entries after “also recorded” stand apart in the source; their conditions may differ.

What was measured:
Assay type in all cases: cell-based, human
[1] = tested on: lateral border recycling compartment (LBRC) in HUVEC; assay: Targeted Recycling assay (LBRC recruitment to transmigrating leukocytes); settings: transduced HUVEC, 8.5 minutes
Method: The Targeted Recycling assay determines whether the LBRC has been recruited to transmigrating leukocytes. Targeted recycling was performed as described previously (ref 5; herein incorporated by reference in its entirety). HUVEC monolayers are incubated with an Fab fragment of P1.1 mAb for 1 h at 37° C. in a CO2 incubator. […] HUVEC are then put on ice and washed with PBS to remove any free unbound Fab, followed by an incubation with an excess of F(ab′)2 fragment of unlabeled goat anti-mouse IgG on ice for 1 h. This saturably binds all of the Fab that is present on the surface of the endothelial junction, but will not enter the LBRC at this temperature. Free antibody is washed away and 2×10^6 PBMCs mixed with Alexa-568-conjugated F(ab′)2 fragment of the same goat […] transmigration to begin. Cells are then put on ice and washed with ice-cold PBS, followed by fixation in 2% paraformaldehyde for 10 min at room temperature.
In this procedure, only PECAM that was originally in the LBRC and recycled to the surface during the transmigration period will be labeled with the fluorescent secondary antibody, since it was protected from the unlabeled secondary antibody during the incubation on ice. The synchronized transmigration for a short time (8 minutes) catches leukocytes early in the act of transmigration before significant constitutive recycling and a corresponding increase in the staining of uninvolved junction occurs.
Confocal fluorescence microscopy is used to image the targeted recycling events. Leukocytes are identified with fluorescently conjugated mAb against CD18 (IB4). […] The number of monocytes in contact with the endothelial monolayer at cell junctions was assessed, and of those, it was determined how many are contacted by membrane from the LBRC. The intensity of fluorescent Goat-anti-mouse mAb was measured to quantify enrichment of recycling LBRC around transmigrating leukocytes. One-pixel-wide lines are drawn along the area surrounding the site of diapedesis. The mean fluorescence intensity in contact with the leukocyte is divided by the average intensity of constitutively recycled PECAM at the adjacent cell border to calculate LBRC enrichment around transmigrating leukocytes. Multiple monolayers were examined until at least one hundred transmigration events are observed for each variable tested. To avoid unintentional bias each leukocyte in contact with the endothelial border is scored, whether or not it has initiated TEM. […] Image processing and quantification of data are performed using Volocity and ImageJ (NIH) image processing software.

HUVEC = assay: Standard one hour Transendothelial Migration (TEM) assay on transduced HUVEC
Method: (§1) 293A cells were grown on 100 mm dishes to 70-90% confluency and then transfected with adenoviral constructs using Lipofectamine 2000 for delivery. Amplified virus that expressed KHC and KLC knockdown and rescue constructs was purified and used to in transduction of HUVEC for knockdown and rescue experiments (VIRAPOWER Adenoviral Expression System).
The TEM assay is a quantitative assay designed to assess, using large numbers of transmigration events (more than 300 per variable tested), the effect of various treatments such as knocking down Kinesin-1, on the process of transmigration. As routinely performed in our lab (refs. 19,21; herein incorporated by reference in their entireties), peripheral blood mononuclear cells (PBMC, to assess monocyte transmigration) from healthy volunteers are purified on a Ficoll density gradient and then washed in Hanks' buffered saline solution (HBSS) plus 0.1% human serum albumin. Following this wash, they are resuspended in Medium 199 plus 0.1% human serum albumin. 2×10^6 cells are added to confluent TNF-α activated (10 ng/mL, >4 hrs) human umbilical vein endothelial cell (HUVEC) monolayers grown on hydrated collagen gels and incubated for 1 h at 37° C. in a CO2 incubator (ref. 22; herein incorporated by reference in its entirety). This is enough time to allow maximum TEM of control cells (˜90%).
To assess the role of microtubule motors in leukocyte TEM, control and experimentally treated HUVEC are compared side by side in this assay. The co-culture is washed with cold PBS and fixed overnight with 2.5% glutaraldehyde in 0.1 M sodium cacodylate buffer, pH 7.4. TEM is quantitated by Nomarski optics (ref. 21; herein incorporated by reference in its entirety). […] Monocytes are scored in each of several random fields for each monolayer until at least 100 are counted, with 3 replicate monolayers for each condition for a total of over 300 cells per variable tested. To avoid unintentional bias, all cells in the field are counted. Data are expressed as the percent of total leukocytes (attached plus transmigrated) that have transmigrated.

Kinesin-1 = assay: Western Blot of Kinesin-1 in virally-transduced HUVEC; settings: Kinesin-1 shRNA plus mCherry-tagged rescue construct
Method: as §1
HUVEC were harvested for SDS-PAGE by washing with PBS and adding sample buffer. DNA was sheared by passing through a 27 G needle 10 times and samples were heated to 100° C. for 5 minutes. Samples were separated on 8% polyacrylamide gels and transferred onto polyvinyldifluoride membranes before blocking with 5% milk in PBS with 0.05% Tween and probing with primary antibodies. Blots were incubated with horseradish peroxidase-conjugated secondary antibodies in 5% milk in PBS with 0.05% Tween, then washed, and detected using chemiluminescence and exposure to X-ray film.

KLC1 variant 1 shRNA: shRNA targeting 3′ noncoding region of KLC1 isoform variant 1 (NM_005552.4); 5′-TGTATTTGTGTCTTTCTAA-3′ (SEQ ID NO: 11) (the letters are possibly those of the target site)
LBRC enrichment around monocytes at endothelial junctions [1]: significantly diminished | targeted recycling of the LBRC [1]: significantly diminished | targeted recycling of the LBRC ([1]; listed as KLC1 Variant 1 shRNA): significantly decreased | transmigration (TEM) of monocytes (HUVEC): reduced; also recorded: blocks

KLC1 variants 2 & 3 shRNA: shRNA targeting KLC1 isoform variants 2 (NM_182923.3) and 3 (NM_001130107.1); 5′-GCATAGGACATGATACTAA-3′ (SEQ ID NO: 12) (the letters are possibly those of the target site)
transmigration (TEM) of monocytes (HUVEC): not

Kinesin-1 rescue construct: KHC rescue construct with silent point mutations in the targeted sequences and in-frame mCherry tag at the 3′ end
targeted recycling of the LBRC [1]: restored targeted recycling to control levels | transmigration (TEM) of monocytes (HUVEC): rescued | Kinesin-1 expression after rescue of knockdown (Kinesin-1): rescued
